Here are results for 5 compounds from PMC5026937 (Antiviral research, 2016).

In assay [1] the test system is A/California/07/2009 (H1N1). It is filed as cell-based.
Assay [2] relates to A/Denmark/528/2009 (H1N1). It is filed as cell-based.
The subject of another assay is A/Texas/04/2009 (H1N1). It is filed as cell-based.
Assay [3] has as its system B/Wisconsin/1/2010 (Yamagata). The class given is cell-based.
For assay [4], the system named is A/Switzerland/9715293/2013 (H3N2). The class given is cell-based.
The subject of the next assay is A/Udorn/72 (H3N2). It is filed as cell-based.
Assay [5] has as its system A/WSN/33 (H1N1). It is filed as cell-based.
In assay [6] the test system is A/Denmark/524/2009 (H1N1). It is filed as cell-based.
Assay [7] deals with B/Phuket/3073/2013 (Yamagata). The class given is cell-based.
Assay [8] concerns B/Brisbane/60/2008 (Victoria). The class given is cell-based.
The subject of assay [9] is A/WSN/33 (H1N1). It is filed as cell-based, Influenza A virus.
Assay [10] deals with clinically isolated influenza A and B viruses. It is filed as cell-based.
Assay [11] has as its system isomerase activity of CypA. Conditions: ref Ni et al., 2009; cited from earlier work.
Assay [12] concerns the target A/WSN/33 (H1N1) viral polymerase activity (Influenza A virus, UniProt P15682). It is filed as cell-based, influenza A/WSN/33 virus.

Entries after “also recorded” stand apart in the source; their conditions may differ.

A/WSN/33 (H1N1) viral polymerase activity, sequence (P15682 whole entry, looked up): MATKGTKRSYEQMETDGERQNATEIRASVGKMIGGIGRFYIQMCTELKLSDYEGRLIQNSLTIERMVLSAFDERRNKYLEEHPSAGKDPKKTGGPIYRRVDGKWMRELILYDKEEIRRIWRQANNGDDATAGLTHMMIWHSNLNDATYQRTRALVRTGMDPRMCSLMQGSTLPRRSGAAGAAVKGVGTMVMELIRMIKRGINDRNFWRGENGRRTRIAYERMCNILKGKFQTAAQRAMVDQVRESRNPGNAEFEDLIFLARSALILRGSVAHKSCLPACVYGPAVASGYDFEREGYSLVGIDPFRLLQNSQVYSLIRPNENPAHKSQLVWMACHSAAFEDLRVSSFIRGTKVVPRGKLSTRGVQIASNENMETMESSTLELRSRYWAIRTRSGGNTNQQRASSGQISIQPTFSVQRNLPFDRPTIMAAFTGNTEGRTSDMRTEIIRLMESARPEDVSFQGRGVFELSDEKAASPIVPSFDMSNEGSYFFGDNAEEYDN

With `NC12CC3CC(CC(C3)C1)C2` [Amantadine, amantadine], the “Sensitivity of influenza strain to drug” value was “R (S31N)” in assay [1]; “R (S31N)” in assay [2]; “R (S31N)” with A/Texas/04/2009 (H1N1); “R” in assay [3]; “R (S31N)” in assay [4]; “S” in the assay on A/Udorn/72 (H3N2). For the same compound, the “Sensitivity of influenza strain to drug” value in the assay with A/WSN/33 (H1N1) [5] is reported as “R (S31N)”; in [6], “R(S31N)”; in assay [7] it was “R”; in [8] it was “R”.

On to `CCC(CC)O[C@@H]1C=C(C(=O)O)C[C@H](N)[C@H]1NC(C)=O` [Oseltamivir carboxylate, oseltamivir carboxylate], for which the “Sensitivity of influenza strain to drug” value in assay [1] was “S”; in assay [2] it was “R (H275Y)”; in the assay with A/Texas/04/2009 (H1N1), “R (H275Y)”; in [3], “S”; in [4] it was “S”; with A/Udorn/72 (H3N2) it was “S”. For the same compound, the “Sensitivity of influenza strain to drug” value (with A/WSN/33 (H1N1) [5]; in assay [6]; in [7]; in assay [8]) was “S” throughout. The “antiviral effect by time of addition” value with A/WSN/33 (H1N1) [9] is recorded as “potent antiviral effect even when added 8 hours post initial viral infection”.

As to `O=C(NC(=O)c1c(F)cccc1Cl)NC1c2ccccc2-c2ccccc21` [TMN355 (2)], the “effect on replication of several influenza A and B strains” value in [10] is recorded as “had no effect on the replication”. For the same compound, the “potency in inhibiting the isomerase activity of CypA relative to CsA (1)” value in assay [11] is given as 27 times.

Consider `Cc1onc(-c2ccccc2)c1C(=O)N1CCN(c2ccc([N+](=O)[O-])cc2Cl)CC1` [nucleozin (21), nucleozin], for which, in [12], the “viral polymerase activity (normalized luciferase ratio)” value was “completely inhibited the viral polymerase activity”.

In the case of Cyclosporine C [CsC (3)], the “antiviral efficacy against A/WSN/33 (H1N1) compared with CsA (1)” value in the assay with A/WSN/33 (H1N1) [5] is recorded as “less active; also recorded: slightly less effective than CsA (1)”.
